According to paper PMC10733197, “Utilization of Rosuvastatin and Endogenous Biomarkers in Evaluating the Impact of Ritlecitinib on BCRP, OATP1B1, and OAT3 Transporter Activity” (Pharmaceutical Research, 2023):

Key:
BCRP = biological target: T1, BCRP (Homo sapiens, UniProt Q9UNQ0); assay: BCRP inhibition in BCRP-expressing membrane vesicles with rosuvastatin as substrate; format: biochemical; settings: for [I]2/IC50 ratio (G-value): ritlecitinib 200 mg, cutoff = 10
T1 sequence (Q9UNQ0 1-655): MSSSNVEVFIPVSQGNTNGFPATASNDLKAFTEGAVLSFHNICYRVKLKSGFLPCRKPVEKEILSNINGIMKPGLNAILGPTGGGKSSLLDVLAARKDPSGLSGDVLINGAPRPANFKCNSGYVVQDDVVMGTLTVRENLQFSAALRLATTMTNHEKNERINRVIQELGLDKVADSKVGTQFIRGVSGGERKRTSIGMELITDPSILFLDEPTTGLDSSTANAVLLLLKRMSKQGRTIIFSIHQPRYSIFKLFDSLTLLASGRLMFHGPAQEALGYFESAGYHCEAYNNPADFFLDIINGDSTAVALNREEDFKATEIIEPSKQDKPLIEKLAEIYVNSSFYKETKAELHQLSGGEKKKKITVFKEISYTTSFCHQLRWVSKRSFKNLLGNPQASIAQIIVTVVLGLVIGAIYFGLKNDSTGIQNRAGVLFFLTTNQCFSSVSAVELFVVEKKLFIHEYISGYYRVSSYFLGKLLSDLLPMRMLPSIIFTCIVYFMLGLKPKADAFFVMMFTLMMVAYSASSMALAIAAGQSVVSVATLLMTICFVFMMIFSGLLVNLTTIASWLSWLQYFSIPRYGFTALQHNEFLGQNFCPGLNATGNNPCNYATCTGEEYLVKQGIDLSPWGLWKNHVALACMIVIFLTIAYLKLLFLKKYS
Description: As described previously, BCRP inhibition by ritlecitinib was measured using BCRP-expressing membrane vesicles with non-labeled rosuvastatin as substrate.
(§1) In all cases, ritlecitinib (0.018 to 1000 µM) and metabolite M2 (0.018 to 300 µM) was tested over a wide range of final concentrations dissolved in dimethyl sulfoxide (the final concentration of dimethyl sulfoxide in the assays was 1% v/v). For each transporter, the IC50 was estimated using a four-parameter logistic equation (Eq. 1) using GraphPad Prism software (GraphPad Software Inc, La Jolla, CA).1 %UptakeActivity=Bottom+(Top-Bottom)/1+10^(LogIC50-inhib*HillSlope)

OATP1B3 = biological target: T2, OATP1B3 (Homo sapiens, UniProt Q9NPD5); assay: OATP1B3-mediated CP-I uptake inhibition in transfected HEK293 cells; format: cell-based
T2 construct: expressed in transfected cells; host or cells: HEK293
T2 sequence (Q9NPD5 1-702): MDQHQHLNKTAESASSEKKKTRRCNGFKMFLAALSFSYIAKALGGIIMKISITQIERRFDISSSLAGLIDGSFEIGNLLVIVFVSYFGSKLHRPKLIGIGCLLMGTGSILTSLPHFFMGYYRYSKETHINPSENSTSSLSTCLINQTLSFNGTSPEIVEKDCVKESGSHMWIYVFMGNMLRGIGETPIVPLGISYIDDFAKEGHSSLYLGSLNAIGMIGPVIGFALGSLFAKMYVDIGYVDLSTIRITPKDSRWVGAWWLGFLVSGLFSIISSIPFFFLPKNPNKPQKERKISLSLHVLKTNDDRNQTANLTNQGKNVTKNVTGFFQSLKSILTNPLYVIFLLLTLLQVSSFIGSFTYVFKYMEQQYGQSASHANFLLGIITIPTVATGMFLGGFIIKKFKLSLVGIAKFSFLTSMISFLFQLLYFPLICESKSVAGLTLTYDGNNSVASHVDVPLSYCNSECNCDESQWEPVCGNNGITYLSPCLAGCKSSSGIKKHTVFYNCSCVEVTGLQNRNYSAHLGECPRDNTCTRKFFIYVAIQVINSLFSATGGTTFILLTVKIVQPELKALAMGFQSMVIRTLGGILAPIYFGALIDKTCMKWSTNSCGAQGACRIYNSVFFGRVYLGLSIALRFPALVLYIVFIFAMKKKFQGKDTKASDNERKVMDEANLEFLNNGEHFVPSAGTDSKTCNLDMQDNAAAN
Description: Sources of human embryonic kidney (HEK) 293 cells expressing individual transfected human solute carriers (SLC), test substrates, and cell culture reagents, as well as detailed cell culture methods, incubations, and sample processing, have been described previously. SLC included hepatic OATP1B1, OATP1B3, and renal OAT1 and OAT3. […] Likewise, the uptake of non-labeled rosuvastatin (Biosynth, San Diego, CA) at 0.3—0.5 µM was determined for OATP1B1 and OATP1B3 at 1—3 min, and CP-I (Frontier Specialty Chemicals, Logan, UT) at 0.1 µM was determined for OATP1B1 and OATP1B3 at 10 min [14].
as §1
Uptake of CP-I was determined by analysis of the in vitro assay samples using an optimized LC-high resolution mass spectrometry (HRMS) method. In brief, dried samples were reconstituted in 150 µL of 0.1% formic acid and analyzed by LC-HRMS. Analyte separation and detection was achieved using a Shimadzu Nexera high performance LC system (Shimazdu Scientific, MA, USA) coupled to a Sciex API-6600 Q-TOF (time of flight) mass spectrometer with a Turbo IonDrive source (Sciex Corporation, MA, USA). Chromatographic separation was achieved using a Waters Acquity BEH C18 1.7µ 2.1 mm x 100 mm column and a binary mobile phase system consisting of 0.1% v/v formic acid and 0.1% v/v formic acid in acetonitrile, as mobile phase A and B, respectively. The column temperature was held at 60 °C and the flow rate was 0.55 mL/minute. The gradient program had initial conditions of 5% B which was held for 0.9 min, followed by a linear ramp to 95% B over 5.1 min, a hold for 1.0 min, and a return to starting conditions over 0.1 min with re-equilibration for 0.9 min (total run time of 8.0 min). Analyte detection was achieved using an API-6600 Q T-OF mass spectrometer with electrospray ionization (ESI). The mass spectrometer was operated in both TOF-MS and TOF-MS/MS mode with data collected over a 60 to 670 dalton mass range. TOF-MS/MS data were collected in the high-resolution mode. Quantification of CP-I levels was assessed using targeted TOF-MS/MS data with accumulation times of 150 and 35 ms, respectively, for CP-I and the internal standard (ISTD) verapamil. Data were processed using the MultiQuant software package using the targeted mass-to-charge transitions of 328.1 to 268.1201 ± 0.02 daltons and 238.1094 ± 0.02 daltons (summed ions) for CP-I, and 455.2 to 165.0907 ± 0.02 daltons for the ISTD (verapamil), to generate analyte/ISTD area ratios.

[1] = human, in vivo
Description: This was a Phase 1, 2-period fixed-sequence, multiple-dose, open-label study of the effect of ritlecitinib on the pharmacokinetics and renal clearance of a single, oral dose of rosuvastatin in healthy participants (Fig. 1). The safety and tolerability of rosuvastatin when coadministered with ritlecitinib was also evaluated.
In Period 1 on Day 1, following an overnight fast of at least 10 h, participants received a single oral administration of rosuvastatin 10 mg tablet. Period 1 was immediately followed by Period 2 with no washout. In Period 2 (coadministration), participants received oral ritlecitinib 200 mg once daily (QD) under non-fasting conditions for 7 days. On the morning of Day 8, a single dose of rosuvastatin 10 mg tablet was administered orally within approximately 5 min after administration of a ritlecitinib 200 mg dose under fasting conditions. On Days 9 and 10, participants continued to receive oral ritlecitinib 200 mg QD under non-fasting conditions.

[2] = set-up: method as in data not published; settings: ref data not published, cited from earlier work

C=CC(=O)N1C[C@H](Nc2ncnc3[nH]ccc23)CC[C@@H]1C [Ritlecitinib, ritlecitinib]
Triggers Drug Interaction Cutoff (BCRP; [I]2/IC50 cutoff = 10): Yes | IC50 (BCRP; intestinal BCRP, RSV 0.2 µM as substrate, membrane vesicles, mean ± SD, n = 3): 27 ± 2 µM | [I]2/IC50 ratio (G-value) (BCRP): 104 | [I]2/IC50 ratio (G-value) (BCRP; listed as ritlecitinib): ~ 100 | Triggers Drug Interaction Cutoff (OATP1B3; OATP1B3 (CP-I)): No | R-value (OATP1B3; OATP1B3 (CP-I), 1 + (Imax,inlet,u/IC50), cutoff 1.1 (FDA), 1.04 (EMA)): < 1.03 | Fraction Inhibited (OATP1B3; OATP1B3 (CP-I), Imax,inlet,u/(Imax,inlet,u + IC50) (Eq. 1)): < 0.03 | IC50 (OATP1B3; hepatic OATP1B3, CP-I 0.1 µM as substrate, 10 min, HEK293): > 1000 µM | inhibition at 10 min, 1000 µM (OATP1B3; human, HEK293 cells transfected with OATP1B3, probe coproporphyrin I (CP-I), 0.1 µM, OATP1B3 (CP-I), 1000 µM, read-out: % inhibition at the highest concentration tested): 23% | serious AEs, severe AEs, dose reductions or discontinuations due to AEs [1]: no serious adverse events | steady-state accumulation ratio of AUC ([2]; 200 mg QD regimen, FIH study): 1.8 | half-life (arithmetic mean) ([2]; 200 mg single dose, first-in-human study): 1.75 h | steady-state of PK reached at ([2]; QD regimens, FIH study): 4 days
